Tests used:
K562 cells = experiment: Cell growth, CellTiter-Glo Luminescent Cell Viability Assay, K562; type: cell-based; conditions: Homo sapiens, 72 h incubation, read-out: IC50 antiproliferative assay K562
From the text: (§1) CellTiter-Glo® Luminescent Cell Viability Assay (Promega) is a homogeneous method of determining the number of viable cells in culture based on quantitation of the present ATP, which indicates the presence of metabolically active cells. The homogeneous assay procedure involves addition of a single reagent (CellTiter-Glo® Reagent) directly to the cells, which leads to cell lysis and generation of a luminescent signal proportional to the amount of the ATP and the number of cells present in culture. The assay relies on the properties of a proprietary thermostable luciferase (Ultra-Glo® recombinant luciferase), which generates a luminescent signal.
(§2) K562, A549 and HCT-116 cells, in exponential growth, were incubated for 72 h with different concentrations of the inhibitors. After 72 h, a volume of CellTiter-Glo® Reagent equal to the volume of cell culture medium was added. The content was mixed for 2 min to induce cell lysis. The luminescence was recorded after further 10 min at RT in order to obtain a stabilized luminescent signal.
(§3) The IC50 was calculated using GraphPad Software.
(§4) IC50 results were allocated to one of 3 ranges as follows: Range A: IC50≦1.0 μM; Range B: from 1.0 to 3.0 μM; Range C: IC50≧3.0 μM.

A549 cells = experiment: Cell growth, CellTiter-Glo Luminescent Cell Viability Assay, A549; type: cell-based; conditions: Homo sapiens, 72 h incubation, read-out: IC50 antiproliferative assay A549
From the text: as §1, §2, §3, §4

HCT-116 cells = experiment: Cell growth, CellTiter-Glo Luminescent Cell Viability Assay, HCT-116; type: cell-based; conditions: Homo sapiens, HCT116 cells, 72 h incubation, read-out: IC50 antiproliferative assay HCT116
From the text: as §1, §2, §3, §4

[1] = system: HDAC (nuclear fraction of Hela cells); experiment: Assay of enzyme inhibition of HDAC (BIOMOL Kit); type: biochemical; conditions: substrate 200 μM, 15 min at RT
Protocol: 2.2 Assay of Enzyme Inhibition of HDAC
The in-vitro activity of HDAC inhibitors was assayed using a BIOMOL Kit, according to the instructions from the manufacturer (Biomolecular Research Laborator). 15 μl of 30× diluted nuclear fraction of Hela cells, was diluted to 50 μl with the assay buffer containing the HDAC inhibitor and the substrate (lysine with acetylated amino group on the side chain) at a concentration of 200 μM. The samples were incubated for 15 min at RT and then exposed to a developer (10 min at RT). In this last step a fluorophore was produced, whose fluorescence was measured using an excitation wavelength of 355 nm and an emission at 460 nm. The IC50 was calculated using GraphPad Software.

SMILES | IC50 (K562 cells) [nM] | IC50 (A549 cells) [nM] | IC50 (HCT-116 cells) [nM] | IC50 [1] [nM]
CC(=O)N1CCC2(CC1)CC(=O)c1ccc(/C=C/C(=O)NO)cc1O2 [Example 10, (E)-3-{1′-Acetyl-4-oxo-spiro[chromane-2,4′-piperidine]-7-yl}-N-hydroxy-acrylamide] | ≥ 3000 | ≥ 3000 | ≥ 3000 | > 1000
CN1CCC2(CC1)Oc1ccc(/C=C/C(=O)NO)cc1C(=O)N2C [Example 78, (E)-3-{1′-Methyl-3,4-dihydro-3-methyl-4-oxo-spiro[2H-(1,3)-benzoxazine-2,4′-piperidin]-6-yl}-N-hydroxy-acrylamide] | 1000 to 3000 | ≥ 3000 | 1000 to 3000 | 100 to 1000
O=C(/C=C/c1ccc2c(c1)C(=O)C1(CCNCC1)O2)NO [Example 20, (E)-3-{3-oxo-spiro[benzofuran-2(3H), 4′-piperidin]-5-yl}-N-hydroxy-acrylamide] | 1000 to 3000 | 1000 to 3000 | ≤ 1000 | 100 to 1000
O=C(/C=C/c1ccc2c(c1)C(=O)C1(CCN(Cc3ccccc3)CC1)O2)NO [Example 21, (E)-3-{1′-Benzyl-3-oxo-spiro[benzofuran-2(3H), 4′-piperidin]-5-yl}-N-hydroxy-acrylamide] | ≥ 3000 | ≥ 3000 | ≥ 3000 | 100 to 1000
O=C(/C=C/c1ccc2c(c1)C(=O)C1(CCN(C(=O)c3ccccc3)CC1)O2)NO [Example 23, (E)-3-{1′-Benzoyl-3-oxo-spiro[benzofuran-2(3H), 4′-piperidin]-5-yl}-N-hydroxy-acrylamide] | ≥ 3000 | ≥ 3000 | ≥ 3000 | > 1000
CCNC(=O)N1CCC2(CC1)CC(=O)c1cc(/C=C/C(=O)NO)ccc1O2 [Example 46, (E)-3-{1′-Ethylcarbamoyl-4-oxo-spiro[chromane-2,4′-piperidine]-6-yl}-N-hydroxy-acrylamide] | ≥ 3000 | ≥ 3000 | ≥ 3000 | 100 to 1000
CC(=O)N1CCC2(CC1)CC(=O)c1cc(/C=C/C(=O)NO)ccc1O2 [Example 3, (E)-3-{1′-Acetyl-4-oxo-spiro[chromane-2,4′-piperidine]-6-yl}-N-hydroxy-acrylamide] | ≥ 3000 | ≥ 3000 | ≥ 3000 | 100 to 1000
O=C(/C=C/c1ccc2c(c1)C(=O)CC1(CCNCC1)O2)NO [Example 1, (E)-3-{4-oxo-spiro[chromane-2,4′-piperidine]-6-yl}-N-hydroxy-acrylamide] | ≥ 3000 | 1000 to 3000 | 1000 to 3000 | < 100
CC(=O)NC1CC2(CCN(Cc3ccccc3)CC2)Oc2ccc(/C=C/C(=O)NO)cc21 (centres unmarked) [Example 16, (E)-3-{1′-Benzyl-4-acetylamino-spiro[chromane-2,4′-piperidine]-6-yl}-N-hydroxy-acrylamide] | ≥ 3000 | ≥ 3000 | ≥ 3000 | > 1000
CC(C)N1CCC2(CC1)CC(=O)c1cc(/C=C/C(=O)NO)ccc1O2 [Example 69, (E)-3-{1′-Isopropyl-4-oxo-spiro[chromane-2,4′-piperidine]-6-yl}-N-hydroxy-acrylamide] | ≤ 1000 | ≤ 1000 | ≤ 1000 | 100 to 1000
O=C(/C=C/c1ccc2c(c1)C(=O)NC1(CCN(Cc3ccccc3)CC1)N2)NO [Example 26, (E)-3-{1-Benzyl-3′,4′-dihydro-4′-oxo-spiro[piperidine-4,2′(1′H)-quinazoline]-6′-yl}-N-hydroxy-acrylamide] | ≥ 3000 | ≥ 3000 | ≥ 3000 | 100 to 1000

Further lines, results first:

IC50 (K562 cells) [nM] | IC50 (A549 cells) [nM] | IC50 (HCT-116 cells) [nM] | IC50 [1] [nM] | SMILES
≤ 1000 | ≤ 1000 | ≤ 1000 | 100 to 1000 | O=C(/C=C/c1ccc2c(c1)C(=O)CC1(CCN(Cc3ccccc3)CC1)O2)NO [Example 2, (E)-3-{1′-Benzyl-4-oxo-spiro[chromane-2,4′-piperidine]-6-yl}-N-hydroxy-acrylamide]
≤ 1000 | 1000 to 3000 | ≤ 1000 | < 100 | O=C(/C=C/c1ccc2c(c1)C(=O)NC1(CCN(CCc3ccccc3)CC1)O2)NO [Example 71, (E)-3-{1′-(2-Phenyl-ethyl)-3,4-dihydro-4-oxo-spiro[2H-(1,3)-benzoxazine-2,4′-piperidin]-6-yl}-N-hydroxy-acrylamide]
≤ 1000 | 1000 to 3000 | 1000 to 3000 | 100 to 1000 | Cc1ccccc1CN1CCC2(CC1)CC(=O)c1cc(/C=C/C(=O)NO)ccc1O2 [Example 28, (E)-3-{1′-(2-Methyl-benzyl)-4-oxo-spiro[chromane-2,4′-piperidine]-6-yl}-N-hydroxy-acrylamide]
≤ 1000 | 1000 to 3000 | ≤ 1000 | 100 to 1000 | O=C(/C=C/c1ccc2c(c1)C(=O)CC1(CCN(Cc3ccc(Cl)cc3)CC1)O2)NO [Example 39, (E)-3-{1′-(4-Chloro-benzyl)-4-oxo-spiro[chromane-2,4′-piperidine]-6-yl}-N-hydroxy-acrylamide]
≤ 1000 | ≤ 1000 | ≤ 1000 | 100 to 1000 | COc1cccc(CCN2CCC3(CC2)CC(=O)c2cc(/C=C/C(=O)NO)ccc2O3)c1 [Example 60, (E)-3-{1′-[2-(3-Methoxy-phenyl)-ethyl]-4-oxo-spiro[chromane-2,4′-piperidine]-6-yl}-N-hydroxy-acrylamide]
≤ 1000 | ≤ 1000 | ≤ 1000 | < 100 | Nc1ccc(CCN2CCC3(CC2)CC(=O)c2cc(/C=C/C(=O)NO)ccc2O3)cc1 [Example 62, (E)-3-{1′-[2-(4-Amino-phenyl)-ethyl]-4-oxo-spiro[chromane-2,4′-piperidine]-6-yl}-N-hydroxy-acrylamide]
≤ 1000 | ≤ 1000 | ≤ 1000 | < 100 | Cc1[nH]c2ccccc2c1CN1CCC2(CC1)CC(=O)c1cc(/C=C/C(=O)NO)ccc1O2 [Example 51, (E)-3-{1′-(2-Methyl-1H-indol-3-ylmethyl)-4-oxo-spiro[chromane-2,4′-piperidine]-6-yl}-N-hydroxy-acrylamide]
≤ 1000 | 1000 to 3000 | ≤ 1000 | 100 to 1000 | Cc1cccc(CN2CCC3(CC2)CC(=O)c2cc(/C=C/C(=O)NO)ccc2O3)c1 [Example 29, (E)-3-{1′-(3-Methyl-benzyl)-4-oxo-spiro[chromane-2,4′-piperidine]-6-yl}-N-hydroxy-acrylamide]
≤ 1000 | ≤ 1000 | ≤ 1000 | < 100 | O=C(/C=C/c1ccc2c(c1)C(=O)CC1(CCN(CCc3c[nH]c4ccccc34)CC1)O2)NO [Example 49]
≤ 1000 | ≤ 1000 | ≤ 1000 | 100 to 1000 | COc1ccccc1CN1CCC2(CC1)CC(=O)c1cc(/C=C/C(=O)NO)ccc1O2 [Example 31, (E)-3-{1′-(2-Methoxy-benzyl)-4-oxo-spiro[chromane-2,4′-piperidine]-6-yl}-N-hydroxy-acrylamide]
≤ 1000 | 1000 to 3000 | ≤ 1000 | 100 to 1000 | COc1cccc(CN2CCC3(CC2)CC(=O)c2cc(/C=C/C(=O)NO)ccc2O3)c1 [Example 32, (E)-3-{1′-(3-Methoxy-benzyl)-4-oxo-spiro[chromane-2,4′-piperidine]-6-yl}-N-hydroxy-acrylamide]
≤ 1000 | ≤ 1000 | ≤ 1000 | < 100 | O=C(/C=C/c1ccc2c(c1)C(=O)CC1(CCN(Cc3c[nH]c4ccccc34)CC1)O2)NO [Example 50]
≤ 1000 | ≤ 1000 | ≤ 1000 | 100 to 1000 | CN1CCC2(CC1)Oc1ccc(/C=C/C(=O)NO)cc1C(=O)N2Cc1ccccc1 [Example 81, (E)-3-{1′-Methyl-3,4-dihydro-3-benzyl-4-oxo-spiro[2H-(1,3)-benzoxazine-2,4′-piperidin]-6-yl}-N-hydroxy-acrylamide]
≤ 1000 | 1000 to 3000 | ≤ 1000 | 100 to 1000 | CN1CCC2(CC1)CC(=O)c1cc(/C=C/C(=O)NO)ccc1O2 [Example 5, (E)-3-{1′-Methyl-4-oxo-spiro[chromane-2,4′-piperidine]-6-yl}-N-hydroxy-acrylamide]
≤ 1000 | ≤ 1000 | ≤ 1000 | 100 to 1000 | COc1ccc(CN2CCC3(CC2)CC(=O)c2cc(/C=C/C(=O)NO)ccc2O3)cc1 [Example 33, (E)-3-{1′-(4-Methoxy-benzyl)-4-oxo-spiro[chromane-2,4′-piperidine]-6-yl}-N-hydroxy-acrylamide]

Source: patent US9115148B2, “Spirocyclic derivatives as histone deacetylase inhibitors” (DAC S.R.L., priority 2008, dated 2015)
